Experimental data published in doi:10.1101/212043v1 (biorxiv, 2017).

What was measured:
hsHDAC11 [1] = biological target: T1, hsHDAC11 (Homo sapiens, UniProt Q96DB2); test: HPLC deacylation assay, Abz fluorescence; format: biochemical; settings: […] trifluoroacetylated peptide substrate, […] enzyme, […]°C; activator
T1 sequence (Q96DB2 1-347): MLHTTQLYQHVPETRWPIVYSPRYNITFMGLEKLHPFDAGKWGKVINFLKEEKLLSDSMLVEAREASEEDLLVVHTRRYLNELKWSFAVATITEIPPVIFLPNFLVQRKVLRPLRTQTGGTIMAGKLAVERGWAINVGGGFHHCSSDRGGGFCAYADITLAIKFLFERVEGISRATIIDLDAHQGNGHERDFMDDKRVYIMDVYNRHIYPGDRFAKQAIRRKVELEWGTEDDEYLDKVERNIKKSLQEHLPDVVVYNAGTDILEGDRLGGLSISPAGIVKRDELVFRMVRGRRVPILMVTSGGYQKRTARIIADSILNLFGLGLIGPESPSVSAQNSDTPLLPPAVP

hsHDAC11 [2] = biological target: T1, hsHDAC11; test: HPLC deacylation assay, Abz fluorescence; format: biochemical; settings: read-out: % inhibition at 100 μM

SMILES | fold stimulation at 100 μM (hsHDAC11 [1]) | inhibition at 100 µM (hsHDAC11 [2])
CCCCCCCCCCCCCC(=O)SCCNC(=O)CCNC(=O)[C@H](O)C(C)(C)COP(=O)(O)OP(=O)(O)OC[C@H]1O[C@@H](n2cnc3c(N)ncnc32)[C@H](O)[C@@H]1OP(=O)(O)O [myristoyl-CoA] | 2.5 fold | –
CCCCCCCCCCCCCCCC(=O)SCCNC(=O)CCNC(=O)[C@H](O)C(C)(C)COP(=O)(O)OP(=O)(O)OC[C@H]1O[C@@H](n2cnc3c(N)ncnc32)[C@H](O)[C@@H]1OP(=O)(O)O [palmitoyl-CoA] | – | > 70%
